The target of assay [1] is T1, smooth muscle myocyte BK channels (C57BL/6) (Mus musculus, UniProt Q8CAE3).
T1 construct: endogenous in cells; host or cells: freshly isolated mouse middle cerebral artery smooth muscle cells, inside-out patches
As to the kind of experiment: Inside-out patch-clamp of MCA smooth muscle myocytes, wt mice. The assay is classed as cell-based. Here is the method:
(§1) Ionic currents were recorded from excised, inside-out (I/O) patches. […] In all experiments, free [Ca^2+] in solution was adjusted to the desired value by adding the appropriate amount of Ca^2+ from a 1 mM CaCl2 stock. An agar bridge with Cl^- as main anion was used as ground electrode. Solutions were applied onto the cytosolic side of I/O patches using an automated, pressurized system (Octaflow; […] Ionic currents at single channel resolution were recorded using an EPC8 amplifier (HEKA) at 1 kHz. Data were digitized at 5 kHz using a Digidata […] A/D converter and pCLAMP 8.0 (Molecular Devices); n = 5/group. […] Drug-induced NPo changes were determined by comparing baseline NPo (i.e., NPo with the patch/cell perfused with bath solution) to the NPo from the same patch/cell exposed to the agent under study (DMSO/PROG/oxime) dissolved in bath solution.

Assay [2] concerns BK channel, construct not given. As to the kind of experiment: Channel activity (NPo) time course, Fig 4E block headed only '10 uM PROG'. It is filed as biochemical.
The target of assay [3] is T2, BK β1 subunit (KCNMB1 product) (Rattus norvegicus, UniProt P97678).
T2 construct: FLAG (DYKDDDDK); made in house; host or cells: CHO cells, transient transfection, anti-flag immunoprecipitation
T2 sequence (P97678 1-191): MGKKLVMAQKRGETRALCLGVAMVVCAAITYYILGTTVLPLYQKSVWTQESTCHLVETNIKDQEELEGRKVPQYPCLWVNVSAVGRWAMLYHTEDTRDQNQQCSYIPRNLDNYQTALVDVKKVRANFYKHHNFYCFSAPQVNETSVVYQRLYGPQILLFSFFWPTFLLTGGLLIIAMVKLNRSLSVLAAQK
As to the kind of experiment: Thermal unfolding (microscale thermophoresis, Prometheus) of purified wt β1. As to conditions: for effect on thermal unfolding / binding: vs DMSO. The assay is classed as binding. The source says: BK channel-forming slo1 cDNA (cbv1 isoform; AY330293) was cloned from rat cerebral artery SM cells, and inserted into pcDNA3.1 vector as described. BK β1 cDNA (KCNMB1 product; NP_011452; FJ154955) were isolated from rat cerebral artery SM cells and cloned as described. β4 cDNA (KCNMB4; NP_055320; AY028605) were generously provided by Dr. Ligia Toro. CHO cells were transiently transfected with cbv1 ± β1-, or β4-carrying pcDNA3.1 using X-tremeGENE HP (Sigma-Aldrich). Mutations to β1/4 cDNAs were conducted by Genscript, with sequences being confirmed to be >99% identical to KCNMB1 product; NP_011452 or β4 KCNMB4; NP_055320; respectively. β1/4 and mutant constructs were flag-tagged (DYKDDDDK-tag) by Genscript services for subsequent immunoprecipitation and use in microscale thermophoresis studies.
Wt β1, wt β4 and mutant constructs were purified by immunoprecipitation using Dynabeads Protein G Kit (10007D by Invitrogen) and following the manufacturer’s instructions. Rabbit polyclonal anti-flag antibody (10 µg; Abcam, Cat# ab205606, RRID:AB_2916341) was cross-linked with dynabeads. Transfected CHO cell lysate supernatant was divided into aliquots containing […] per column. Following precipitation, kit instructions for non-denaturing elutions were followed; one elution of 30 µl was collected for each column, and pH was adjusted to 7.5 using UltraPure 1 M Tris-HCI buffer pH 7.5 (cat# 15567027 by Fisher Scientific). PROG stock or vehicle control (DMSO) was added to the eluate to reach PROG final concentrations (0.004-40 µM), all dissolved within the same concentration of DMSO. Glass capillaries were prepared and loaded in triplicates into Prometheus (Nanotemper) and heated from 15° to 95 °C at a rate of 1°/min, the largest thermal scale available to run in the Nanotemper PR.therm-control software. The unfolding profile of a protein is a plot of its fluorescence signal against temperature. The protein is heated at a defined ramp over a specified temperature range. During the heating process, fluorescence is recorded at 330 and 350 nm. The resulting fluorescence ratio change is then analyzed for onset and inflection points. The temperature of onset and inflection is determined using built-in analysis function in Nanotemper PR.therm-control software. The onset of unfolding or aggregation is the temperature at which the channel conformation (unfolding or aggregation) process first starts. […] Onset and inflection points were validated by comparing the first-derivative variations between technical triplicates (high degrees of variations in the first derivative are shown in Supplementary Fig. 1b, c). CRC data obtained from microscale thermophoresis experiments were fitted to a Boltzmann function of the type: y=A1−A2/1+e^x−x0+A2 using Origin 2020 software (OriginLab; OriginLab Corporation).

The target in assay [4] is T3, smooth muscle myocyte BK channels (KCNMB1-/-) (Mus musculus, UniProt Q08460).
T3 construct: endogenous in cells; host or cells: freshly isolated middle cerebral artery smooth muscle cells of KCNMB1-/- mice, inside-out patches
Nature of the assay: Inside-out patch-clamp of MCA smooth muscle myocytes, KCNMB1-/- mice. It is filed as cell-based. As to conditions: for normalized NPo, time course Fig 5C: beta1KO, PROG 10uM. Here is the method: as §1

Setting [5] is: 10 µM, I/O patches, 30 μM free Ca2+.
[6] abbreviates: Δ onset to inflection vs concentration.

“And” between values parts separate entries of the source, which are not always exact repeats. Equal entries are not always repeated. Where two headings read alike, the source gives them in different places.

T3 sequence (Q08460 whole entry): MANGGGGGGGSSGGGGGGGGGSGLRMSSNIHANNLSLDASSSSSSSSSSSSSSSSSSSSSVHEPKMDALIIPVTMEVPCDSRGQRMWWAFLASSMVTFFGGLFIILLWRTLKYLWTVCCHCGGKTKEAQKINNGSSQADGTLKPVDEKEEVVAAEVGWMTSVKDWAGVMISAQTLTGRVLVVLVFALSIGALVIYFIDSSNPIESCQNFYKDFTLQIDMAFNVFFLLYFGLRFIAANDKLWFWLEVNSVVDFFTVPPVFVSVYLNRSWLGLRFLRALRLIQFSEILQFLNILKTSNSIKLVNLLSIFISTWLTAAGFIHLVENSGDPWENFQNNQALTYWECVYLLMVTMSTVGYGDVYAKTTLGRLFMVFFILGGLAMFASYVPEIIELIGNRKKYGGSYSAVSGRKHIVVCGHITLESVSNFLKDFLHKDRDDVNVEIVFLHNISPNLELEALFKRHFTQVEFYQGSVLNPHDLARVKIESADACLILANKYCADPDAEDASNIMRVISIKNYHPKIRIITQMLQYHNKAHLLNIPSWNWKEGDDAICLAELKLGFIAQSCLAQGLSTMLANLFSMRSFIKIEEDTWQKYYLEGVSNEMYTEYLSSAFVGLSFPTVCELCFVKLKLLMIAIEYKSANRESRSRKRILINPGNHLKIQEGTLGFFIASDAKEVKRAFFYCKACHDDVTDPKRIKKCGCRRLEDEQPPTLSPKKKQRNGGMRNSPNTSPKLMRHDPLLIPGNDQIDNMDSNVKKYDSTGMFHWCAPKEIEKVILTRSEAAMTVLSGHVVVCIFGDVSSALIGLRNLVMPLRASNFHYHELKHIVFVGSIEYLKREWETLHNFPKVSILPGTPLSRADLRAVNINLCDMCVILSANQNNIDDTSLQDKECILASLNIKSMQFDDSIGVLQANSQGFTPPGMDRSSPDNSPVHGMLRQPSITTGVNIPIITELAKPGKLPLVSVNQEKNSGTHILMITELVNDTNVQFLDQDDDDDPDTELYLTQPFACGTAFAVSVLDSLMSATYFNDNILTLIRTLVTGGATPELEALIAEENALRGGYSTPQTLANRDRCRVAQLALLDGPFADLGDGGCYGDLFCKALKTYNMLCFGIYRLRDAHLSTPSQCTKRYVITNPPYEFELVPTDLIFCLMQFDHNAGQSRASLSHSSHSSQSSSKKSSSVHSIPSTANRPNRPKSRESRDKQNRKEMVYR
T1 sequence (Q8CAE3 whole entry): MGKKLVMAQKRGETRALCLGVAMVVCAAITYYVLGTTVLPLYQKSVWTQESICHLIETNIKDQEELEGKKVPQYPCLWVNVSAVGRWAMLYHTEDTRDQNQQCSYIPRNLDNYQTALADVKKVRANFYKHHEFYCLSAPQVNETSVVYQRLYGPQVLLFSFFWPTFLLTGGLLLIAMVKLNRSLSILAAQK
T1 sequence (Q08460 whole entry partner): as the sequence (Q08460 whole entry) above

`CC(=O)[C@H]1CC[C@H]2[C@@H]3CCC4=CC(=O)CC[C@]4(C)[C@H]3CC[C@]12C` [PROG, Progesterone]: the “increase of BK channel activity” value in assay [1] (setting [5]) is recorded as ~ 3 fold. In addition, the “normalized NPo, time course Fig 5C” value was 1 in assay [1] (wt mouse, PROG, time 1 (normalisation reference), columns = cell number); 1 in assay [4] (time 1 (normalisation reference), columns = cell number); 0.9681 and 1.062 and 1.027 and 1.211 and 0.9954 in assay [4] (time 2); 0.9157 and 1.074 and 1.107 and 1.076 and 1.008 in assay [4] (time 3); 1.013 and 0.9333 and 1.023 and 1.02 and 0.9985 in assay [4] (time 4); 0.8445 and 0.9395 and 0.9666 and 0.9766 and 1.044 in assay [4] (time 5). Besides, the “normalized NPo, time course Fig 5C” value was 1.335 and 0.9407 and 1.013 and 1.133 and 0.9069 in assay [4] (time 6); 1.401 and 0.9722 and 0.9298 and 1.141 and 1.008 in assay [4] (time 7); 0.9307 and 0.9753 and 1 and 1.059 and 0.9374 in assay [4] (time 8); 0.8843 and 0.9534 and 0.8763 and 1.168 and 1.029 in assay [4] (time 9); 0.9107 and 1 and 0.9833 and 1.22 and 0.9731 in assay [4] (time 10); 0.9343 and 1.019 and 1.187 and 1.237 and 0.9145 in assay [4] (time 11). Further, the “normalized NPo, time course Fig 5C” value is 0.9053 and 0.9515 and 1.0301 and 1.285 and 0.9695 in assay [4] (time 13); 0.872 and 0.9873 and 0.9766 and 1.12 and 1.0626 in assay [4] (time 14); 0.8834 and 0.9392 and 0.9933 and 1.107 and 1.032 in assay [4] (time 15); 0.8292 and 1.033 and 0.8763 and 1.072 and 0.8061 in assay [4] (time 16); 0.881 and 1.326 and 0.8485 and 1.237 and 0.7481 in assay [4] (time 17); 0.8971 and 1.152 and 0.7759 and 1.189 and 1.06 in assay [4] (time 18). For the same compound, the “normalized NPo, time course Fig 5C” value in assay [4] (time 19) was 0.8576 and 1.179 and 0.7388 and 1.176 and 0.8214; in assay [4] (time 20), 0.8348 and 0.9401 and 0.8127 and 1.189 and 0.8275; in assay [4] (time 21), 0.9702 and 1.112 and 0.8729 and 1.098 and 1.041; in assay [4] (time 22) it was 0.9222 and 1.09 and 0.9773 and 1.02. Besides, the “normalized NPo, time course Fig 4E” value in assay [2] (time 1 min (normalisation reference)) is 1; in assay [2] (time 2 min), 0.9853 and 1 and 0.9322 and 1.014 and 0.7178; in assay [2] (time 4 min) it was 1.015 and 1.069 and 1.029 and 1.047 and 1.067; in assay [2] (time 5 min), 1.11 and 1.053 and 1.066 and 1.023 and 1.182; in assay [2] (time 6 min) it was 1.088 and 1.041 and 1.129 and 1.028 and 1.207; in assay [2] (time 7 min), 1.162 and 1.118 and 1.064 and 0.8935 and 1.1318. The “normalized NPo, time course Fig 4E” value is 1.096 and 1.061 and 1.045 and 1.148 and 1.63 in assay [2] (time 8 min); 1.11 and 0.7114 and 1.049 and 1.394 and 1.416 in assay [2] (time 10 min). Further, the “concentrations optimal to bind β1 as determined by MST” value in assay [3] fell in the range of 4 to 10 µM. Also, the “delta (Δ) of onset to inflection point” value was 5.26 and 13.2518 and 6.093 and 5.155 and 14.4223 and 5.701 and 4.973 and 10.2833 and 5.781 and 6.3298 and 7.116 in assay [3] (0.004 µM PROG, individual records (Fig 1B)); 5.943 and 2.008 and 8.93 and 4.708 and 3.29 and 2.039 and 5.415 and 2.123 and 6.078 and 9.405 and 14.8911 and 5.538 in assay [3] (0.04 µM PROG, individual records (Fig 1B)); 3.821 and 6.41 and 2.29 and 0.9082 and 1.393 and 3.976 and 4.647 and 6.669 and 3.779 and 6.772 in assay [3] (0.4 µM PROG, individual records (Fig 1B)); 10.9265 and 4.989 and 3.478 and 3.054 and 2.195 and 4.0816 in assay [3] (1.3 µM PROG, individual records (Fig 1B)); 4.355 and 17.5013 and 19.981 and 4.864 and 5.088 and 8.156 and 15.523 and 3.088 and 7.882 and 12.3542 and 0.9184 and 8.919 and 6.947 and 9.668 in assay [3] (4 µM PROG, individual records (Fig 1B)); 12.73 and 36.72 and 4.56 and 4.587 and 4.664 and 11.45 and 5.307 and 5.645 and 4.368 and 3.818 in assay [3] (10 µM PROG, individual records (Fig 1B)). The “delta (Δ) of onset to inflection point” value in assay [3] (10 μM PROG, individual records (Fig 1C, SFig1A)) was 9.668 and 4.355 and 17.5013 and 19.981 and 4.864 and 5.088 and 8.156 and 15.523 and 3.088 and 7.882 and 12.3542 and 0.9184 and 8.919 and 6.947; in assay [3] (40 µM PROG, individual records (Fig 1B)) it was 6.851 and 14.1513 and 13.0079 and 8.574 and 9.969 and 3.1593 and 5.59 and 5.656. The “effect on thermal unfolding / binding” value in assay [3] was “decreases the difference in delta between the onset inflection events”. For the same compound, the “high-affinity binding process: concentration at maximum” value in assay [3] (setting [6]) lay within 0.4 to 1 µM. Moreover, the “low-affinity binding process: concentration at maximum” value in assay [3] (setting [6]) was determined as 10 µM. The EC50 in assay [3] (Δ onset to inflection vs concentration, read-out: high-affinity binding process: 50% value) was 40 nM; in assay [3] (Δ onset to inflection vs concentration, read-out: low-affinity binding process: 50% value) it was ~2200 nM. Moreover, the “action on BK channel activity” value in assay [4] (setting [5]) was “consistently resistant to PROG”. Further, the “normalized NPo, scatter Fig 5D” value in assay [4] (KO, PROG, single cells (same values as 5C time 13)) is 1.285 and 0.9695 and 0.9053 and 0.9515 and 1.0301.
Consider `CC(=O)C1CCC2C3CCC4=CC(=NOCC(=O)O)CCC4(C)C3CCC12C` (stereo not drawn) [PROG-oxime, progesterone 3-(O-carboxymethyl)oxime], for which the “effect on thermal unfolding / binding” value in assay [3] is listed as “actual binding to wt β1”.

The values are drawn from publication PMC10636063, “Progesterone activation of β1-containing BK channels involves two binding sites” (Nature Communications, 2023).
